Laboratory results published in US20180002288A1, “USE OF PICOLINAMIDES AS FUNGICIDES” (DOW AGROSCIENCES LLC, priority 2014, published 2018).
Read-outs that look alike come from different tables or passages of the source.

How the values were obtained:
[1] = test system: Puccinia triticina; experiment: Wheat Brown Rust fungicidal activity (PUCCRT); format: in vivo; settings: for pest or weed control at 100 ppm: wheat, high volume; for pest or weed control at 121.5 g/ha: Low Volume Cereal Activity at 121.5 g/Ha
Protocol: All fungicides were evaluated using the aforementioned method for their activity vs. all target diseases, unless stated otherwise. Wheat leaf blotch and brown rust activity were also evaluated using track spray applications, in which case the fungicides were formulated as EC formulations, containing 0.1% Trycol 5941 in the spray solutions. Wheat plants (variety Yuma) were grown from seed in a greenhouse in 50% mineral soil/50% soil-less Metro mix until the first leaf was fully emerged, with 7-10 seedlings per pot. These plants were inoculated with an aqueous spore suspension of Zymoseptoria tritici either prior to or after fungicide treatments. After inoculation the plants were kept in 100% relative humidity (one day in a dark dew chamber followed by two to three days in a lighted dew chamber at 20° C.) to permit spores to germinate and infect the leaf. The plants were then transferred to a greenhouse set at 20° C. for disease to develop. When disease symptoms were fully expressed on the 1st leaves of untreated plants, infection levels were assessed on a scale of 0 to 100 percent disease severity. Percent disease control was calculated using the ratio of disease severity on treated plants relative to untreated plants. Wheat plants (variety Yuma) were grown from seed in a greenhouse in 50% mineral soil/50% soil-less Metro mix until the first leaf was fully emerged, with 7-10 seedlings per pot. These plants were inoculated with an aqueous spore suspension of Puccinia triticina either prior to or after fungicide treatments. […] The plants were then transferred to a greenhouse set at 24° C. for disease to develop. Fungicide formulation, application and disease assessment followed the procedures as described in the Example A.

[2] = test system: Zymoseptoria tritici; experiment: Leaf Blotch of Wheat fungicidal activity (SEPTTR); format: in vivo; settings: for pest or weed control at 100 ppm: wheat, high volume; for pest or weed control at 121.5 g/ha: Low Volume Cereal Activity at 121.5 g/Ha
Protocol: All fungicides were evaluated using the aforementioned method for their activity vs. all target diseases, unless stated otherwise. Wheat leaf blotch and brown rust activity were also evaluated using track spray applications, in which case the fungicides were formulated as EC formulations, containing 0.1% Trycol 5941 in the spray solutions. Wheat plants (variety Yuma) were grown from seed in a greenhouse in 50% mineral soil/50% soil-less Metro mix until the first leaf was fully emerged, with 7-10 seedlings per pot. These plants were inoculated with an aqueous spore suspension of Zymoseptoria tritici either prior to or after fungicide treatments. After inoculation the plants were kept in 100% relative humidity (one day in a dark dew chamber followed by two to three days in a lighted dew chamber at 20° C.) to permit spores to germinate and infect the leaf. The plants were then transferred to a greenhouse set at 20° C. for disease to develop. When disease symptoms were fully expressed on the 1st leaves of untreated plants, infection levels were assessed on a scale of 0 to 100 percent disease severity. Percent disease control was calculated using the ratio of disease severity on treated plants relative to untreated plants.

[3] = 24 h, 1 Day Protectant, read-out: PUCCRT 1DP % Control rating
[4] = 72 h, 3 Day Curative, read-out: PUCCRT 3DC % Control rating
[5] = 24 h, 1 Day Protectant, read-out: SEPTTR 1DP % Control rating
[6] = 72 h, 3 Day Curative, read-out: SEPTTR 3DC % Control rating
[7] = 24 h, 1 Day Protectant, read-out: PUCCRT 1DP (Wheat Brown Rust, 1 Day Protectant)
[8] = 72 h, 3 Day Curative, read-out: PUCCRT 3DC (Wheat Brown Rust, 3 Day Curative)
[9] = 24 h, 1 Day Protectant, read-out: SEPTTR 1DP (Wheat Leaf Blotch, 1 Day Protectant)
[10] = 72 h, 3 Day Curative, read-out: SEPTTR 3DC (Wheat Leaf Blotch, 3 Day Curative)

SMILES	pest or weed control at 100 ppm [1, 3] [%]	pest or weed control at 100 ppm [1, 4] [%]	pest or weed control at 100 ppm [2, 5] [%]	pest or weed control at 100 ppm [2, 6] [%]	pest or weed control at 121.5 g/ha [1, 7] [%]	pest or weed control at 121.5 g/ha [1, 8] [%]	pest or weed control at 121.5 g/ha [2, 9] [%]	pest or weed control at 121.5 g/ha [2, 10] [%]
COc1cc(F)ccc1[C@@H](OCC1CC1)[C@H](C)OC(=O)[C@H](C)NC(=O)c1nccc(OC)c1O [Example 289]	> 80	> 80	> 80	> 80				
COc1ccnc(C(=O)N[C@@H](C)C(=O)O[C@@H](C)[C@H](Oc2ccccc2)c2ccc(F)cc2Oc2ccccc2)c1O [Example 178]	> 80	< 80	> 80	> 80				
COc1ccnc(C(=O)N[C@@H](C)C(=O)O[C@@H](C)[C@H](Oc2ccc(C)cc2Cl)c2ccccc2)c1O [Example 149]	> 80	> 80	> 80	> 80				
COc1cc(F)ccc1[C@@H](OCC(F)F)[C@H](C)OC(=O)[C@H](C)NC(=O)c1nccc(OC)c1O [Example 288]	> 80	> 80	< 80	> 80				
COc1ccnc(C(=O)N[C@@H](C)C(=O)O[C@@H](C)[C@H](Oc2ccccc2)c2ccc(F)cc2C)c1O [Example 162]	> 80	> 80	> 80	> 80				
COc1ccnc(C(=O)N[C@@H](C)C(=O)O[C@@H](C)[C@H](Oc2ccc(F)cc2)c2ccc(F)cc2)c1OCOC(C)=O [Example 254]					> 80	> 80	> 80	> 80
COc1ccnc(C(=O)N[C@@H](C)C(=O)O[C@@H](C)[C@@H](OCC2CC2)c2ccccc2)c1O [Example 142]	> 80	> 80	< 80	< 80				
COc1ccnc(C(=O)N[C@@H](C)C(=O)O[C@@H](C)[C@H](Oc2cccc(F)c2)c2cccc(-c3ccccc3)c2)c1OCOC(C)=O [Example 221]					> 80	< 80	> 80	< 80
COc1cc(C)ccc1[C@@H](Oc1ccc(C)cc1)[C@H](C)OC(=O)[C@H](C)NC(=O)c1nccc(OC)c1O [Example 177]	< 80	< 0	> 80	> 80				
COc1ccnc(C(=O)N[C@@H](C)C(=O)O[C@@H](C)[C@H](Oc2ccc(C)cc2)c2ccccc2)c1OCOC(C)=O [Example 248]					> 80	> 80	> 80	> 80
COc1ccnc(C(=O)N[C@@H](C)C(=O)O[C@@H](C)[C@H](Oc2ccc(Cl)cc2)c2ccccc2)c1O [Example 119]	> 80	> 80	< 80	> 80				
COc1ccnc(C(=O)N[C@@H](C)C(=O)O[C@@H](C)[C@H](Oc2ccccc2)c2ccc(C)cc2)c1O [Example 154]	> 80	> 80	> 80	> 80				
COc1ccnc(C(=O)N[C@@H](C)C(=O)O[C@@H](C)[C@@H](Oc2ccc(Cl)cc2Cl)c2ccccc2)c1OC(C)=O [Example 214]					> 80	< 80	> 80	> 80
COc1ccnc(C(=O)N[C@@H](C)C(=O)O[C@@H](C)[C@H](OCC2CC2)c2cccc(-c3ccccc3)c2)c1OC(C)=O [Example 222]					> 80	> 80	> 80	> 80
COc1ccnc(C(=O)N[C@@H](Cc2ccccc2)C(=O)O[C@@H](C)[C@H](Oc2cccc(F)c2)c2ccccc2)c1O [Example 128]	> 80	< 80	< 0	< 80				
COc1ccnc(C(=O)N[C@@H](C)C(=O)O[C@@H](C)C(Oc2ccccc2)c2nccs2)c1OC(C)=O (stereo partly drawn) [Example 212]					< 80	> 80	< 0	< 80
CC[C@H](NC(=O)c1nccc(OC)c1OCOC(C)=O)C(=O)O[C@@H](C)[C@H](Oc1cc(F)ccc1F)c1ccccc1 [Example 193]					> 80	> 80	< 80	< 0
CC[C@H](NC(=O)c1nccc(OC)c1O)C(=O)O[C@@H](C)[C@H](Oc1cc(F)ccc1F)c1ccccc1 [Example 123]	> 80	< 80	< 80	< 80				
COc1ccnc(C(=O)N[C@@H](C)C(=O)O[C@@H](C)[C@H](Oc2ccc(Cl)cc2Cl)c2ccccc2)c1OC(C)=O [Example 200]					> 80	< 80	> 80	> 80
COc1ccnc(C(=O)N[C@@H](Cc2ccccc2)C(=O)O[C@@H](C)[C@H](Oc2cccc(F)c2)c2ccccc2)c1OC(C)=O [Example 190]					> 80	< 80	< 80	< 0
COc1ccnc(C(=O)N[C@@H](C)C(=O)O[C@@H](C)C(Oc2ccc(F)cc2)c2ccc(F)cc2)c1O (stereo partly drawn) [Example 147]	> 80	< 80	> 80	> 80				
CC[C@H](NC(=O)c1nccc(OC)c1O)C(=O)O[C@@H](C)[C@H](Oc1cc(F)cc(Cl)c1)c1ccccc1 [Example 124]	> 80	> 80	> 80	> 80				
COc1ccnc(C(=O)N[C@@H](C)C(=O)O[C@@H](C)[C@H](OCC2CC2)c2cccc(-c3ccccc3)c2)c1O [Example 131]	< 80	< 80	< 0	< 80				
COc1ccnc(C(=O)N[C@@H](C)C(=O)O[C@@H](C)[C@H](Oc2cc(F)ccc2F)c2ccccc2)c1OC(C)=O [Example 192]					> 80	> 80	> 80	< 80
COc1ccnc(C(=O)N[C@@H](C)C(=O)O[C@@H](C)[C@H](OCC2CC2)c2ccc(-c3ccccc3)cc2)c1OCOC(C)=O [Example 234]					> 80	< 80	> 80	> 80
COc1ccnc(C(=O)N[C@@H](C)C(=O)O[C@@H](C)[C@H](Oc2ccc(C)cc2)c2ccc(F)cc2)c1OCOC(C)=O [Example 249]					> 80	> 80	> 80	> 80
COc1ccnc(C(=O)N[C@@H](C)C(=O)O[C@@H](C)[C@H](Oc2ccc(F)cc2)c2ccc(C)cc2)c1OCOC(C)=O [Example 253]					> 80	> 80	> 80	> 80
